Assay results published in patent US9771389B2, “Tylosin derivatives and method for preparation thereof” (BAYER ANIMAL HEALTH GMBH, priority 2013, dated 2017).
Values after ≈ are worked out from the molar mass of the structure shown. Where two headings read alike, the source gives them in different places.

Tests used:
[1] = tested on: Mannheimia haemolytica, 3 isolates; assay: MIC against Mannheimia haemolytica isolates; format: cell-based; conditions: Mannheimia haemolytica
Description: (§1) Minimal inhibitory concentrations (MICs) were determined against the most prevalent pathogens in cattle (Mannheimia Haemolytica, 3 isolates) and swine (A. pleuropneumoniae, 6 isolates). In addition the activity of several compounds was tested against two bacterial species, i.e. Mannheimia haemolytica and Actinobacillus pleuropneumoniae, which are considered as the most important bacterial respiratory pathogens in cattle and swine, respectively.

[2] = tested on: Actinobacillus pleuropneumoniae, 6 isolates; assay: MIC against Actinobacillus pleuropneumoniae isolates; format: cell-based
Description: as §1

[3] = tested on: M. hemolytica KB345 (Tilmicosin-sensitivity strain); assay: Paper disc assay, M. hemolytica KB345; format: cell-based, Mannhemia hemolytica; conditions: Table 4
Description: (1) Antibacterial activities against Mannheimia and Pasteurella were determined by the following steps: • 1) M. hemolytica KB345 (Tilmicosin-sensitivity strain) and M. hemolytica KB346 (Tilmicosin-low sensitivity strain) were provided. KB 345 strain stored at −80° C. was seeded to BHIB agar medium (10 mL) by using Microbank beads (Pro-Lab) and platinum nail. After statically incubating the KB 345 strain for 24 hours at 37° C., it was seeded to maintaining slant BHIB agar medium (7 mL) by using platinum loop, further statically incubated for 24 hours at 37° C. to obtain slant. One platinum loop of KB 345 strain stored at the slant was inoculated into a large test tube charged with BHIB liquid medium (10 mL) and then incubated for 24 hours at 37° C. with shaking. • 2) A paper disc (ADVANTEC, Φ:6 mm) was impregnated with a solution of test compound and dried under reduced pressure. • 3) To a melted BHIB agar medium was inoculated 1% of the broth obtained from step 1) above to prepare a test plate. After the medium set, the paper disc prepared in step 2) above was put on the plate and it was incubated at 37° C. • 4) After one day, the inhibition zone diameter and clarity (A to E) were determined. For KB346 strain, the same procedures were repeated.

[4] = 3ISOLATES, 3 Mannheimia haemolytica isolates, broth dilution method, read-out: Range of minimum inhibitory concentrations (MIC)
[5] = 6ISOLATES, 6 Actinobacillus pleuropneumoniae isolates, broth dilution method, read-out: Range of minimum inhibitory concentrations (MIC)

| Structure (SMILES) | MIC [2, 5] [µg/mL] | MIC [1, 4] [µg/mL] | other results |
| --- | --- | --- | --- |
| CC[C@H]1OC(=O)C[C@@H](O)[C@H](C)[C@@H](O[C@@H]2OC(C)[C@@H](O)C(N(C)C)C2O)[C@@H](CC=O)C[C@@H](C)C(=O)/C=C/C(C)=C/[C@@H]1Cn1cc(-c2ccc(-c3ccccc3)cc2)nn1 (stereo partly shown) [YT104, 23-(4-biphenyl-1H-1,2,3-triazol-1-yl)-23-Deoxy-5-O-mycaminosyltylonolide] |  |  | MIC ([1]; M. haemolytica isolate 1, read-out: MICs): 8 µg/mL (≈ 9.99 µM); MIC ([1]; M. haemolytica isolate 2, read-out: MICs): 4 µg/mL (≈ 4.99 µM); MIC ([1]; M. haemolytica isolate 3, read-out: MICs): 8 µg/mL (≈ 9.99 µM); MIC ([2]; Actinobacillus pleuropneumoniae, pleuropneumoniae isolate 1, read-out: MICs): > 16 µg/mL; MICs ([2]; pleuropneumoniae isolate 2): >16 µg/mL; MICs ([2]; pleuropneumoniae isolate 3): >16 µg/mL; MICs ([2]; pleuropneumoniae isolate 4): >16 µg/mL; MICs ([2]; pleuropneumoniae isolate 5): >16 µg/mL; MICs ([2]; pleuropneumoniae isolate 6): >16 µg/mL |
| CCC1OC(=O)CC(O)C(C)C(OC2OC(C)C(O)C(N(C)C)C2O)C(CCn2cc(-c3ccccc3)nn2)CC(C)C(=O)C=CC(C)=CC1CI (stereo not shown) [YT113] |  |  | Inhibition zone ([3]; 10 mg/6 mm disk): 11.0 mm; Inhibition zone ([3]; 30 mg/6 mm disk): 18.0 mm; Inhibition zone ([3]; 100 mg/6 mm disk): 19.5 mm |
| CCC1OC(=O)CC(O)C(C)C(OC2OC(C)C(O)C(N(C)C)C2O)C(CCn2cc(-c3ccccc3)nn2)CC(C)C(=O)C=CC(C)=CC1CN=[N+]=[N-] (stereo not shown) [YT114, 20-(4-phenyl-1H-1,2,3-triazol-1-yl)-20-deoxo-23-azido-23-deoxy-5-O-mycaminosyltylonolide] |  |  | Inhibition zone ([3]; 3 mg/6 mm disk): 11.5 mm; Inhibition zone ([3]; 10 mg/6 mm disk): 17.5 mm; Inhibition zone ([3]; 30 mg/6 mm disk): 21.0 mm; Inhibition zone ([3]; 100 mg/6 mm disk): 21.0 mm |
| CC[C@H]1OC(=O)C[C@@H](O)[C@H](C)[C@@H](O[C@@H]2OC(C)[C@@H](O)C(N(C)C)C2O)[C@@H](CCNCCn2cc(-c3ccccc3)nn2)C[C@@H](C)C(=O)/C=C/C(C)=C/[C@@H]1CO (stereo partly shown) [YT617] | 4 (≈ 5.19 µM) | 2 to 8 (≈ 2.6 to 10.4 µM) |  |
| CC[C@H]1OC(=O)C[C@@H](O)[C@H](C)[C@@H](O[C@@H]2OC(C)[C@@H](O)C(N(C)C)C2O)[C@@H](CCN(C)Cc2cn(CCNCc3ccccc3)nn2)C[C@@H](C)C(=O)/C=C/C(C)=C/[C@@H]1CO (stereo partly shown) [YT653] | 4 to 8 (≈ 4.84 to 9.67 µM) | 1 to 8 (≈ 1.21 to 9.67 µM) |  |

Second part, led by results:

| MIC [2, 5] [µg/mL] | Structure (SMILES) | MIC [1, 4] [µg/mL] | other results |
| --- | --- | --- | --- |
| 2 (≈ 2.29 µM) | CC[C@H]1OC(=O)C[C@@H](O)[C@H](C)[C@@H](O[C@@H]2OC(C)[C@@H](O)C(N(C)C)C2O)[C@@H](CCN(CCn2cc(-c3cccc(N)c3)nn2)Cc2ccccc2)C[C@@H](C)C(=O)/C=C/C(C)=C/[C@@H]1CO (stereo partly shown) [YT657] | 2 to 4 (≈ 2.29 to 4.57 µM) |  |
| 2 to 8 (≈ 2.32 to 9.29 µM) | CC[C@H]1OC(=O)C[C@@H](O)[C@H](C)[C@@H](O[C@@H]2OC(C)[C@@H](O)C(N(C)C)C2O)[C@@H](CCN(CCn2cc(-c3cccnc3)nn2)Cc2ccccc2)C[C@@H](C)C(=O)/C=C/C(C)=C/[C@@H]1CO (stereo partly shown) [YT664] | 4 to 8 (≈ 4.65 to 9.29 µM) |  |
| 2 (≈ 2.31 µM) | CC[C@H]1OC(=O)C[C@@H](O)[C@H](C)[C@@H](O[C@@H]2OC(C)[C@@H](O)C(N(C)C)C2O)[C@@H](CCN(CCn2cc(-c3ccsc3)nn2)Cc2ccccc2)C[C@@H](C)C(=O)/C=C/C(C)=C/[C@@H]1CO (stereo partly shown) [YT674] | 2 to 4 (≈ 2.31 to 4.62 µM) |  |
| 8 (≈ 8.11 µM) | CC[C@H]1OC(=O)C[C@@H](O)[C@H](C)[C@@H](O[C@@H]2OC(C)[C@@H](O)C(N(C)C)C2O)[C@@H](CCN(CCn2cc(-c3ccccc3)nn2)Cc2ccc(I)cc2)C[C@@H](C)C(=O)/C=C/C(C)=C/[C@@H]1CO (stereo partly shown) [YT700] | 4 to 8 (≈ 4.06 to 8.11 µM) |  |
| 8 (≈ 8.06 µM) | CC[C@H]1OC(=O)C[C@@H](O)[C@H](C)[C@@H](O[C@@H]2OC(C)[C@@H](O)C(N(C)C)C2O)[C@@H](CCN(CCn2cc(-c3ccsc3)nn2)Cc2ccc(I)cc2)C[C@@H](C)C(=O)/C=C/C(C)=C/[C@@H]1CO (stereo partly shown) [YT705] | 8 (≈ 8.06 µM) |  |
| 4 (≈ 4.87 µM) | CC[C@H]1OC(=O)C[C@@H](O)[C@H](C)[C@@H](O[C@@H]2OC(C)[C@@H](O)C(N(C)C)C2O)[C@@H](CCN(C)Cc2cn(-c3ccc4ncccc4c3)nn2)C[C@@H](C)C(=O)/C=C/C(C)=C/[C@@H]1CO (stereo partly shown) [YT710] | 2 to 4 (≈ 2.44 to 4.87 µM) |  |
| 4 (≈ 5.15 µM) | CC[C@H]1OC(=O)C[C@@H](O)[C@H](C)[C@@H](O[C@@H]2OC(C)[C@@H](O)C(N(C)C)C2O)[C@@H](CCNCCn2cc(-c3ccsc3)nn2)C[C@@H](C)C(=O)/C=C/C(C)=C/[C@@H]1CO (stereo partly shown) [YT717] | 2 to 8 (≈ 2.58 to 10.3 µM) |  |
